Source: patent publication US10060933B2, “Methods for diagnosis and treatment of amyotrophic lateral sclerosis based on an increased level of interaction between TDP-43 polypeptide and NF-KB P65 polypeptide” (UNIVERSITE LAVAL, priority 2011, dated 2018)
“Also recorded” adds a separate entry of the source.

Tests used:
[1] = test system: NF-κB (phospho-p65^Ser536); experiment: Western blot of phospho-p65^Ser536 in challenged neuronal cells; assay type: cell-based, mouse; details: glutamate and conditioned media challenged neuronal cells; WA
Source text: […] is known to modulate p53-p38MAPK dependent apoptosis in neurons, when treated with DNA damage inducing chemicals like camptothecin^34, glutamate excitotoxicity^35 or general bystander mediated killing of neurons by microglia^14. To assess the potential contribution of NF-κB to the death of TDP-43 overexpressing neurons exposed to toxic injury, we prepared cultures of primary cortical neurons and microglia from transgenic mice overexpressing TDP-43^wt or TDP-43 mutants. […] The LDH cytotoxicity was determined 24 hrs later (FIG. 14A). […] We then incubated cortical neurons with the conditioned media from primary microglial culture, which were challenged with LPS at a concentration of 50 ng/ml of media. […] As WA might exert multiple pharmacological actions, we tested a more specific molecular approach for inhibiting NF-κB. Since, activation of NF-κB requires its dissociation from the inhibitory molecule, IκB, we expressed a stable mutant super-repressive form of IκB-α (Ser 32/Ser36-to-alanine mutant; IκB^SR) and evaluated its effects on neuronal death. Cultured cortical neurons from TDP-43 transgenic and non-transgenic mice were transfected with a plasmid construct, expressing IκB^SR, and exposed to either 10 μM glutamate for 30 min or incubated in conditioned media from LPS-stimulated microglia of same genotype. […]

GFAP-luc/TDP-43^Wt mice = experiment: Accelerating rotarod in TDP-43^Wt transgenic mice; assay type: in vivo, mouse
Experimental: (§1) To study the in vivo effect of NF-κB inhibition on disease progression, we injected TDP-43^wt; GFAP-luc double transgenic mice with 3 mg/kg body weight of WA twice a week for 10-weeks starting at 30-weeks. […] We used TDP-43^wt; GFAP-luc double transgenic mice because the reporter luciferase (luc) allowed the longitudinal and non-invasive biophotonic imaging with CCD camera of the GFAP promoter activity which is a target of activated NF-κB. To analyse the spatial and temporal dynamics of astrocytes activation/GFAP induction in TDP-43 mouse model, we performed series of live imaging experiments. […] The downregulation of GFAP promoter activity was further confirmed in these mice using GFAP immunofluorescence of spinal cord sections of TDP-43^Wt mice (both drug-treated and untreated) (FIG. 8F). […] Down-regulation of GFAP along with reduction in active p65 levels in withaferin treated mice prompted us to analyse behavioural changes in these mice. […] The withaferin treated mice also had 40% reduction in the number of partially denervated neuromuscular junction (NMJ) (FIGS. 8E&G).
Age matched control non-transgenic animals (n=10) and in TDP-43^Wt (n=10) littermates were injected twice a week with 0.9% saline intra-peritoneally. All the behavioral and imaging experiments were conducted in a double blind manner as such the experimenter had no knowledge of the drug treatment or the genotype of animals.
Accelerating rotarod was performed on mice at 4 rpm speed with 0.25 rpm/sec acceleration as described elsewhere^30. Mice were subjected to three trials per session and every two weeks.

p65 = target: T1, p65 (Mus musculus, UniProt Q04207); experiment: p65 EMSA on spinal cord tissue nuclear lysates; assay type: in vivo; details: treated vs untreated GFAP-luc/TDP-43^Wt mice
T1 construct: from tissue; host or cells: spinal cord of GFAP-luc/TDP-43^Wt transgenic mice (nuclear lysates)
Experimental: as §1
48 hrs after transfection of CMV-p65 with pCMV-TDP43^WT or pCMV-TDP43^G348C and treatment with LPS, BV-2 cells were harvested and nuclear extracts prepared. […] Concentrations of nuclear proteins were determined on diluted samples using a Bradford assay (Biorad). […]

Mac-2 positive cells = experiment: Activated microglia (Mac-2, Cox-2) in spinal cord sections; assay type: in vivo, mouse
Experimental: as §1
4% Paraformaldehyde (PFA) fixed spinal cord and brain sections of mice were sectioned and fixed on slides. For immunohistochemistry, tissues were treated with hydrogen-peroxide solution before permeabilisation. […]

[2] = Detection of Withaferin A in the CSF of mice using HPLC; assay type: in vivo, mouse
Experimental: FIG. 15. Detection of Withaferin A in the CSF of mice using HPLC. […] For blank samples (B), 0.9% saline was injected in non-transgenic mice. 1.5 hrs after injection, CSF samples from the mice were obtained using […] into the cistern magna. 50 μl of the sample was mixed with 60% ACN 0.1% formic acid, centrifuged and the supernatant was injected into HPLC. […] 1000 ng/ml withaferin-a chemical served as a standard (C). Withaferin retention time was 1.6 mins.

T1 sequence (Q04207 whole entry): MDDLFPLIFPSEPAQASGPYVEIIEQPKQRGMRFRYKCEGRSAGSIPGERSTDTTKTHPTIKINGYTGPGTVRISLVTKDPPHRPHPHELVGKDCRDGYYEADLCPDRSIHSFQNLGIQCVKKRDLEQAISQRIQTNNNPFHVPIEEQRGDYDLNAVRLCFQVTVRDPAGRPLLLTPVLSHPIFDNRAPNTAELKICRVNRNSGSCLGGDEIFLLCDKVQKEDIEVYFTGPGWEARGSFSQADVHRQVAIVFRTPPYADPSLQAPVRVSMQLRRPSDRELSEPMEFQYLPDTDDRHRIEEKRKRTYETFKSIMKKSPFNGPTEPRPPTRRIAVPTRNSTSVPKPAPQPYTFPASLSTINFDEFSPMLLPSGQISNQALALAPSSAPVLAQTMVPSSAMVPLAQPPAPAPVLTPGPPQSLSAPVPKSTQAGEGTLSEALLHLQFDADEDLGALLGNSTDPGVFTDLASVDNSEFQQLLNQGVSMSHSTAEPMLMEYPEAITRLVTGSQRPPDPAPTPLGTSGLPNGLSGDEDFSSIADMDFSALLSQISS

CC1=C(CO)C(=O)O[C@@H]([C@@H](C)[C@H]2CC[C@H]3[C@@H]4C[C@H]5O[C@]56[C@@H](O)C=CC(=O)[C@]6(C)[C@H]4CC[C@]23C)C1 [Withaferin A]
levels of phospho-p65^Ser536 (inhibition of NF-κB) [1]: reduced levels | rotarod performance (GFAP-luc/TDP-43^Wt mice; GFAP-luc/TDP-43^Wt mice, 3 mg/kg i.p. twice a week for 10 weeks, vs untreated, 3 mg/kg): significantly better motor performance; also recorded: much better rotarod performance | ameliorated motor impairment compared to untreated mice (GFAP-luc/TDP-43^Wt mice; TDP-43^WT or TDP-43^G348C transgenic mice): at least 4% | rotarod performance after cessation of the drug treatment (GFAP-luc/TDP-43^Wt mice; withaferin treated TDP-43 transgenic mice after cessation of treatment): decrease in rotarod performance | nuclear active p65 (EMSA) (p65): reduced amount of active p65; also recorded: much reduced nuclear active p65 | Mac-2^+ cells in L5 spinal cord (Mac-2 positive cells; TDP-43^Wt (Withaferin treated) mice, untreated 13000±500/mm^3): 6000±300 /mm^3 | activated microglia (Mac-2 and Cox-2 double immunofluorescence) (Mac-2 positive cells; TDP-43^Wt mice, treated vs untreated): marked reduction in activated microglia | Withaferin A in CSF (HPLC) ([2]; 3 mg/kg intra-peritoneally, CSF 1.5 hrs after injection, 8-months old non-transgenic and TDP-43^Wt mice): presence of Withaferin-A | passage of the blood-brain barrier ([2]; mice, FIG. 15): passes the blood-brain barrier
